Molecular target: T1, NEK4 (Homo sapiens, UniProt P51957)
T1 construct: purchased Thermo Fisher Scientific (Life Technologies) SelectScreen
Test: SelectScreen Z'LYTE
Assay type: biochemical
Method in brief: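 Percent values come from Thermo SelectScreen profiling of NU5455, combining activity and binding assays. CSF1R was run in Z'LYTE format at Km app ATP, and CAMK1 in Adapta format with ATP listed at 10.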

T1 sequence (P51957 whole entry): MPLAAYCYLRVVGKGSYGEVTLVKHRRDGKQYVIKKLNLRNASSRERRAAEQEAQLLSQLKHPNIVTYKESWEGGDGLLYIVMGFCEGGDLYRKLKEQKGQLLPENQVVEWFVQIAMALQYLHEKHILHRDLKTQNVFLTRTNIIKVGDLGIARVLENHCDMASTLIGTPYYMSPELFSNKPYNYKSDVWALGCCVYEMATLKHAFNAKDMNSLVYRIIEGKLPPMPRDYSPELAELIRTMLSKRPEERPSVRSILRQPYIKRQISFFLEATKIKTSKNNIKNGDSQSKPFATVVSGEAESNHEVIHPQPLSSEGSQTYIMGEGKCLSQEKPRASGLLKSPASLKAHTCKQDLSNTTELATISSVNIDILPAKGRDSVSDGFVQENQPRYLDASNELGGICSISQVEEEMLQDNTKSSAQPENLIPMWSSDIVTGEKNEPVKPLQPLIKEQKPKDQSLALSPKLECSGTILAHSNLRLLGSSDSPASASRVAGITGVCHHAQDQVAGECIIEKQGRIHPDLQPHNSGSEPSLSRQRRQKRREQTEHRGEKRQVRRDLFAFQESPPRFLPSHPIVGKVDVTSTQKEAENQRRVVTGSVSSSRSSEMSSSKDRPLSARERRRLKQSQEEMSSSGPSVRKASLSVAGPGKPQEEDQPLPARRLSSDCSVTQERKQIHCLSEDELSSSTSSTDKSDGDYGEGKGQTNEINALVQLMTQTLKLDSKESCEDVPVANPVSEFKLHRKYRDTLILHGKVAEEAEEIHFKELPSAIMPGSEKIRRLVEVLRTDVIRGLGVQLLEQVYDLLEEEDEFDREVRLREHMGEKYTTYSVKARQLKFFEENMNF

CN(C(=O)CN1CCOCC1)c1ccc2sc3c(-c4cccc5c(=O)cc(N6CC7CCC(C6)O7)oc45)cccc3c2c1 [NU5455]
inhibition at 1 µM: -11.6%

— publication PMC6934184, “Selective DNA-PKcs inhibition extends the therapeutic index of localized radiotherapy and chemotherapy” (The Journal of Clinical Investigation, 2019)
